Key:
[1] = tested on: HT29 (colon adenocarcinoma); assay: SRB cytotoxicity assay, HT29; type: cell-based, human; details: for EC50: Homo sapiens, HT-29, SRB assay, 96 h of treatment, HT29; for Selectivity index (SI) HT29: SI = EC50 (NIH 3T3)/EC50 (HT29)
Method: (§1) The cytotoxicity of ursolic and betulinic carboxamides 3–30 was determined in sulforhodamine B (SRB) assays.
(§2) The cell lines used were human cancer cell lines: 518A2 (melanoma), A2780 (ovarian carcinoma), HT29 (colon adenocarcinoma), MCF-7 (breast adenocarcinoma), 8505C (thyroid carcinoma) and non-malignant mouse fibroblasts NIH 3T3. Cultures were maintained as monolayers in RPMI 1640 medium with L-glutamine (Capricorn Scientific GmbH, Ebsdorfergrund, Germany) supplemented with 10% heat inactivated fetal bovineserum (Sigma-Aldrich Chemie GmbH, Steinheim, Germany) and penicillin/streptomycin (Capricorn Scientific GmbH, Ebsdorfergrund, Germany) at 37 °C in a humidified atmosphere with 5% CO2.
(§3) The cytotoxicity of the compounds was evaluated using the sulforhodamine-B (Kiton-Red S, ABCR) micro culture colorimetric assay. Cells were seeded into 96-well plates on day 0 at appropriate cell densities to prevent confluence of the cells during the period of experiment. After 24 h, the cells were treated with 6 different concentrations (1, 3, 7, 12, 20 and 30 µM) minimum. The final concentration of DMSO/DMF never exceeded 0.5%, which was non-toxic to the cells. After a 96 h treatment, the supernatant medium from the 96-well plates was discarded, the cells were fixed with 10% trichloroacetic acid (TCA) and allowed to rest at 4 °C. After 24 h fixation, the cells were washed in a strip washer and dyed with SRB solution (100 µL, 0.4% in 1% acetic acid) for about 20 min. After dying, the plates were washed four times with 1% acetic acid to remove the excess of the dye and allowed to air-dry overnight. Tris base solution (200 µL, 10 mM) was added to each well and absorbance was measured at λ = 570 nm using a 96-well plate reader (Tecan Spectra, Crailsheim, Germany). The EC50 values were averaged from three independent experiments performed each in triplicate calculated from semi logarithmic dose response curves applying a non-linear 4P Hills-slope equation (GraphPad Prism5; variables top and bottom were set to 100 and 0, respectively).

[2] = tested on: non-malignant mouse fibroblasts NIH 3T3; assay: SRB cytotoxicity assay, NIH 3T3; type: cell-based; details: NIH3T3, 96 h of treatment
Method: as §1, §2, §3

[3] = tested on: A2780 (ovarian carcinoma); assay: SRB cytotoxicity assay, A2780; type: cell-based, human; details: for EC50: Homo sapiens, SRB assay, 96 h of treatment, A2780; for Selectivity index (SI) A2780: SI = EC50 (NIH 3T3)/EC50 (A2780)
Method: as §1, §2, §3

[4] = tested on: 8505C (thyroid carcinoma); assay: SRB cytotoxicity assay, 8505C; type: cell-based, human; details: for EC50: Homo sapiens, SRB assay, 96 h of treatment, 8505C; for Selectivity index (SI) 8505C: SI = EC50 (NIH 3T3)/EC50 (8505C)
Method: as §1, §2, §3

[5] = tested on: MCF-7 (breast adenocarcinoma); assay: SRB cytotoxicity assay, MCF-7; type: cell-based, human; details: for EC50: Homo sapiens, MCF7, SRB assay, 96 h of treatment, MCF-7; for Selectivity index (SI) MCF-7: SI = EC50 (NIH 3T3)/EC50 (MCF-7)
Method: as §1, §2, §3

518A2 (melanoma) = assay: SRB cytotoxicity assay, 518A2; type: cell-based, human; details: for EC50: Homo sapiens, SRB assay, 96 h of treatment, 518A2; for Selectivity index (SI) 518A2: SI = EC50 (NIH 3T3)/EC50 (518A2)
Method: as §1, §2, §3

Row | Compound | melting point [°C] | EC50 [1] [µM] | Selectivity index (SI) HT29 [1] | EC50 [2] [µM] | EC50 [3] [µM] | Selectivity index (SI) A2780 [3] | EC50 [4] [µM] | Selectivity index (SI) 8505C [4] | EC50 [5] [µM] | Selectivity index (SI) MCF-7 [5] | EC50 (518A2 (melanoma)) [µM] | Selectivity index (SI) 518A2 (518A2 (melanoma))
1 | C=C(C)C1CC[C@]2(C(=O)NCCOCCN)CC[C@]3(C)C(CCC4[C@@]5(C)CC[C@H](O)C(C)(C)C5CC[C@]43C)C12 (stereo partly drawn) [Compound 30, (3β)-N-[2-(2-Aminoethoxy)ethyl]-3-hydroxy-lup-20(29)-en-28-amide] | 182 to 183 | 0.5 ± 0.07 | 0.80 | 0.4 ± 0.07 | 0.5 ± 0.04 | 0.80 | 0.2 ± 0.01 | 2.00 | 0.4 ± 0.2 | 1.00 | 0.5 ± 0.04 | 0.80
2 | C=C(C)C1CC[C@]2(C(=O)NCCCCN)CC[C@]3(C)C(CCC4[C@@]5(C)CC[C@H](OC(C)=O)C(C)(C)C5CC[C@]43C)C12 (stereo partly drawn) [Compound 22, (3β)-N-(4-Aminobutyl)-3-acetyloxy-lup-20(29)-en-28-amide] | 133 to 135 | 0.6 ± 0.05 | 1.00 | 0.6 ± 0.04 | 1.1 ± 0.03 | 0.55 | 1.4 ± 0.05 | 0.43 | 0.8 ± 0.04 | 0.75 | 1 ± 0.03 | 0.60
3 | C=C(C)C1CC[C@]2(C(=O)NCCN3CCNCC3)CC[C@]3(C)C(CCC4[C@@]5(C)CC[C@H](OC(C)=O)C(C)(C)C5CC[C@]43C)C12 (stereo partly drawn) [Compound 21, (3β)-N-(2-Piperazin-1-ylethyl)-3-acetyloxy-lup-20(29)-en-28-amide] | 107 to 110 | 0.6 ± 0.3 | 1.67 | 1 ± 0.05 | 1.5 ± 0.06 | 0.67 | 1.1 ± 0.09 | 0.91 | 1.9 ± 0.1 | 0.53 | 2.5 ± 0.7 | 0.40
4 | CC(=O)O[C@H]1CC[C@@]2(C)C(CC[C@]3(C)C2CC=C2C4[C@@H](C)[C@H](C)CC[C@]4(C(=O)NCCOCCN)CC[C@]23C)C1(C)C (stereo partly drawn) [Compound 9, (3β)-N-[2-(2-Aminoethoxy)ethyl]-3-acetyloxy-urs-12-en-28-amide] | 91 to 94 | 1.6 ± 0.1 | 1.93 | 3.1 ± 0.4 | 3.4 ± 0.5 | 0.91 | 5.8 ± 0.4 | 0.53 | 2.3 ± 0.4 | 1.35 | 3.5 ± 0.6 | 0.89

Further lines, with some results ahead:

Row | melting point [°C] | Compound | EC50 [1] [µM] | Selectivity index (SI) HT29 [1] | EC50 [2] [µM] | EC50 [3] [µM] | Selectivity index (SI) A2780 [3] | EC50 [4] [µM] | Selectivity index (SI) 8505C [4] | EC50 [5] [µM] | Selectivity index (SI) MCF-7 [5] | EC50 (518A2 (melanoma)) [µM] | Selectivity index (SI) 518A2 (518A2 (melanoma))
5 | 117 to 120 | CC(=O)O[C@H]1CC[C@@]2(C)C(CC[C@]3(C)C2CC=C2C4[C@@H](C)[C@H](C)CC[C@]4(C(=O)NCCCCN)CC[C@]23C)C1(C)C (stereo partly drawn) [Compound 8, (3β)-N-(4-Aminobutyl)-3-acetyloxy-urs-12-en-28-amide] | 1.7 ± 0.1 | 0.76 | 1.3 ± 0.2 | 2.6 ± 0.1 | 0.50 | 3.2 ± 0.01 | 0.41 | 1.7 ± 0.1 | 0.76 | 2.7 ± 0.1 | 0.48
6 | 145 to 147 | CC(=O)O[C@H]1CC[C@@]2(C)C(CC[C@]3(C)C2CC=C2C4[C@@H](C)[C@H](C)CC[C@]4(C(=O)NCCN4CCNCC4)CC[C@]23C)C1(C)C (stereo partly drawn) [Compound 7, (3β)-N-(2-Piperazin-1-ylethyl)-3-acetyloxy-urs-12-en-28-amide] | 1.8 ± 0.2 | 1.22 | 2.2 ± 0.1 | 2.4 ± 0.1 | 0.92 | 5.4 ± 0.4 | 0.41 | 2.7 ± 0.3 | 0.81 | 3.2 ± 0.1 | 0.69
7 | 121 to 124 | CC(=O)O[C@H]1CC[C@@]2(C)C(CC[C@]3(C)C2CC=C2C4[C@@H](C)[C@H](C)CC[C@]4(C(=O)NCCN(C)C)CC[C@]23C)C1(C)C (stereo partly drawn) [Compound 4, (3β)-N-[2-(Dimethylamino)ethyl]-3-acetyloxy-urs-12-en-28-amide] | 3.4 ± 0.3 | 1.09 | 3.7 ± 0.2 | 3.6 ± 0.4 | 1.03 | 8.3 ± 0.7 | 0.45 | 3.3 ± 0.7 | 1.12 | 5.3 ± 0.4 | 0.70
8 | 214 to 217 | C[C@@H]1CC[C@]2(C(=O)NCCN3CCNCC3)CC[C@]3(C)C(=CCC4[C@@]5(C)CC[C@H](O)C(C)(C)C5CC[C@]43C)C2[C@H]1C (stereo partly drawn) [Compound 14, (3β)-N-(2-Piperazin-1-ylethyl)-3-hydroxy-urs-12-en-28-amide] | 2.8 ± 0.4 | 2.36 | 6.6 ± 0.6 | 4.9 ± 0.4 | 1.35 | 7.8 ± 0.5 | 0.85 | 4.4 ± 0.1 | 1.50 | 7 ± 0.4 | 0.94
9 | 124 to 127 | CC(=O)O[C@H]1CC[C@@]2(C)C(CC[C@]3(C)C2CC=C2C4[C@@H](C)[C@H](C)CC[C@]4(C(=O)NCCN4CCCCC4)CC[C@]23C)C1(C)C (stereo partly drawn) [Compound 6, (3β)-N-(2-Piperidin-1-ylethyl)-3-acetyloxy-urs-12-en-28-amide] | 4.2 ± 0.5 | 1.71 | 7.2 ± 1.2 | 6.5 ± 0.5 | 1.11 | 15.5 ± 2.7 | 0.46 | 6 ± 0.9 | 1.20 | 12.2 ± 0.3 | 0.59
10 | 202 to 205 | CC(=O)O[C@H]1CC[C@@]2(C)C(CC[C@]3(C)C2CC=C2C4[C@@H](C)[C@H](C)CC[C@]4(C(=O)NCCN)CC[C@]23C)C1(C)C (stereo partly drawn) [Compound 3, (3β)-N-(2-Aminoethyl)-3-acetyloxy-urs-12-en-28-amide] | 1.8 ± 0.1 | 1.44 | 2.6 ± 0.3 | 2.3 ± 0.1 | 1.13 | 4.1 ± 0.4 | 0.63 | 2 ± 0.1 | 1.30 | 2.7 ± 0.1 | 0.96

From publication PMC6222718, “Ethylenediamine Derived Carboxamides of Betulinic and Ursolic Acid as Potential Cytotoxic Agents” (Molecules : A Journal of Synthetic Chemistry and Natural …, 2018)
